Experimental data taken from ChEMBL document CHEMBL2010731, “Discovery of P2X3 selective antagonists for the treatment of chronic pain” (Bioorg Med Chem Lett, 2012).
Blank lines part the entries; values can stand above or below the molecule they belong to.

What was measured:
[1] = Intrinsic clearance in human liver microsomes at 1 uM; type: ADME, Microsome; conditions: read-out: CLH
[2] = Intrinsic clearance in rat liver microsomes; type: ADME, Microsome; conditions: read-out: CLH
[3] = Apparent permeability from apical to basal side of human Caco2 cells at 10 uM; type: ADME, cell-based; conditions: Caco-2
[4] = Oral bioavailability in rat at 12 umol/kg; type: ADME, organism-based; conditions: in vivo
[5] = AUC in rat at 11 umol/kg, iv; type: ADME, organism-based; conditions: plasma
[6] = Lipophilicity, log D of the compound at pH 7.4; type: physicochemical; conditions: buffer
[7] = AUC in rat at 12 umol/kg, po; type: ADME, organism-based; conditions: plasma
[8] = Half life in dog at […], iv; type: ADME, organism-based, Canis lupus familiaris; conditions: in vivo
[9] = Oral bioavailability in rat at 58 umol/kg; type: ADME, organism-based; conditions: in vivo
[10] = Half life in rat at 11 umol/kg, iv; type: ADME, organism-based; conditions: in vivo
[11] = Half life in rat at […], iv; type: ADME, organism-based; conditions: in vivo
[12] = Drug excretion in iv dosed rat faces; type: ADME, organism-based, Feces; conditions: faeces, read-out: Drug excretion
[13] = Cmax in rat at 58 umol/kg, po; type: ADME, organism-based; design: dose 58 umol/kg, route oral; conditions: in vivo
[14] = Clearance in dog at […], iv; type: ADME, organism-based, Canis lupus familiaris; conditions: in vivo
[15] = Drug excretion in rat faces at high dose, iv; type: ADME, Feces; conditions: faeces, read-out: Drug excretion
[16] = AUC in rat at 58 umol/kg, po; type: ADME, organism-based; conditions: plasma
[17] = Cmax in rat at 12 umol/kg, po; type: ADME, organism-based; design: dose 12 umol/kg, route oral; conditions: in vivo
[18] = Clearance in rat at […], iv; type: ADME, organism-based; conditions: in vivo
[19] = Clearance in dog hepatocytes assessed per 10^6 cells; type: ADME, cell-based, Canis lupus familiaris, Hepatocyte; conditions: read-out: CLH
[20] = AUC in rat at […], iv; type: ADME, organism-based; conditions: plasma
[21] = Clearance in rat at 11 umol/kg, iv; type: ADME, organism-based; conditions: in vivo
[22] = AUC in dog at […], iv; type: ADME, organism-based, Canis lupus familiaris; conditions: plasma
[23] = Cmax in rat at […], sc; type: ADME, organism-based; design: dose 5.9 umol/kg, route subcutaneous; conditions: in vivo
[24] = AUC in rat at […], sc; type: ADME, organism-based; conditions: plasma
[25] = Ratio of drug level in brain to plasma in Sprague-Dawley rat; type: ADME; conditions: read-out: BPR

microsomal CLint at 1 µM [1]: 10 µL/min/mg
microsomal CLint [2]: 58 µL/min/mg
Structure (SMILES): CCOc1ccc([C@@H](CC)Nc2nc(N3CCN(C(C)=O)CC3)nc3c2CN(C(C)C)C3=O)cc1

microsomal CLint at 1 µM [1]: 7 µL/min/mg
Structure (SMILES): CCOc1ncc([C@@H](C)Nc2nc(N3CCN(C(C)=O)CC3)nc3c2CN(C(C)C)C3=O)cc1F

Papp A→B at 10 µM [3]: 0.8 ×10⁻⁶ cm/s
microsomal CLint at 1 µM [1]: 17 µL/min/mg
Structure (SMILES): CCOc1ccc([C@@H](C)Nc2nc(N3CCN(C(C)=O)CC3)nc3c2CN(C(C)C)C3=O)cc1F

microsomal CLint at 1 µM [1]: 4 µL/min/mg
Structure (SMILES): COc1ccc([C@@H](C)Nc2nc(N3CCN(C(C)=O)CC3)nc3c2CN(C(C)C)C3=O)cc1

bioavailability [4]: 16%
AUC [5]: 8.05 µM·h
logD [6]: 3
AUC [7]: 0.4 µM·h
Papp A→B at 10 µM [3]: 2.4 ×10⁻⁶ cm/s
half-life [8]: 14.5 h
bioavailability [9]: 62%
half-life [10]: 2 h
half-life [11]: 0.5 h
dose excreted [12]: > 15%
microsomal CLint at 1 µM [1]: 10 µL/min/mg
Cmax [13]: 6900 nM
microsomal CLint [2]: 17 µL/min/mg
clearance [14]: 8 mL/min/kg
dose excreted [15]: < 3%
AUC [16]: 1.8 µM·h
Cmax [17]: 100 nM
clearance [18]: 88 mL/min/kg
hepatocyte CLint [19]: 2.5 µL/min/1e6 cells
AUC [20]: 0.4 µM·h
clearance [21]: 22 mL/min/kg
AUC [22]: 4.8 µM·h
Structure (SMILES): CCOc1ccc([C@@H](C)Nc2nc(N3CCN(C(C)=O)CC3)nc3c2CN(C(C)C)C3=O)cc1

Papp A→B at 10 µM [3]: 4.5 ×10⁻⁶ cm/s
microsomal CLint at 1 µM [1]: 22 µL/min/mg
Structure (SMILES): CC(=O)N1CCN(c2nc(N[C@H](C)c3ccc(OC(F)(F)F)cc3)c3c(n2)C(=O)N(C(C)C)C3)CC1

Papp A→B at 10 µM [3]: 2 ×10⁻⁶ cm/s
microsomal CLint at 1 µM [1]: 5 µL/min/mg
Structure (SMILES): CCOc1ccc([C@H](Nc2nc(N3CCN(C(C)=O)CC3)nc3c2CN(C(C)C)C3=O)C(F)(F)F)cc1

Second part, the molecule before the results:

Structure (SMILES): CC(=O)N1CCN(c2nc(NCc3cc4ccccc4cn3)c3c(n2)C(=O)N(C(C)C)C3)CC1
Papp A→B at 10 µM [3]: 0.6 ×10⁻⁶ cm/s
microsomal CLint at 1 µM [1]: 16 µL/min/mg

Structure (SMILES): CC(=O)N1CCN(c2nc(NCc3ccc(C(F)(F)F)cc3)c3c(n2)C(=O)N(C(C)C)C3)CC1
microsomal CLint at 1 µM [1]: 31 µL/min/mg

Structure (SMILES): CC(=O)N1CCN(c2nc3c(c(N(C)Cc4cc5ccccc5cn4)n2)CN(C(C)C)C3=O)CC1
Papp A→B at 10 µM [3]: 2.9 ×10⁻⁶ cm/s
microsomal CLint at 1 µM [1]: 19 µL/min/mg

Structure (SMILES): CC(=O)N1CCN(c2nc(NC(C)(C)Cc3ccc(Cl)cc3)c3c(n2)C(=O)N(C(C)C)C3)CC1
half-life [11]: 0.9 h
Cmax [23]: 1000 nM
microsomal CLint [2]: 83 µL/min/mg
clearance [18]: 54 mL/min/kg
AUC [20]: 0.7 µM·h
AUC [24]: 2.8 µM·h
Kp [25]: 0.02

Structure (SMILES): CC(=O)N1CCN(c2nc(NCc3ccc(OC(F)(F)F)cc3)c3c(n2)C(=O)N(C(C)C)C3)CC1
Papp A→B at 10 µM [3]: 2.9 ×10⁻⁶ cm/s
microsomal CLint at 1 µM [1]: 4 µL/min/mg

Structure (SMILES): CC(=O)N1CCN(c2nc(NCc3ccc(Cl)cc3)c3c(n2)C(=O)N(C(C)C)C3)CC1
microsomal CLint at 1 µM [1]: 6 µL/min/mg

Structure (SMILES): CC(C)N1Cc2c(NC(c3ccccc3)c3ccccc3)nc(N3CCOCC3)nc2C1=O
logD [6]: 4.3

Structure (SMILES): COc1cc(OC(F)(F)F)ccc1CNc1nc(N2CCN(C(C)=O)CC2)nc2c1CN(C(C)C)C2=O
microsomal CLint at 1 µM [1]: 31 µL/min/mg

Structure (SMILES): CC(=O)N1CCN(c2nc(NCc3cnc4ccccc4c3)c3c(n2)C(=O)N(C(C)C)C3)CC1
Papp A→B at 10 µM [3]: 0.1 ×10⁻⁶ cm/s
microsomal CLint at 1 µM [1]: 11 µL/min/mg
